Usually viability stands for a per cent measure of how many cells are alive, often set against a control.

Like-named read-outs stand apart in the source and are kept apart here. Where a SMILES comes first, the peptide text is derived from it.

The record followed here is patent US20240059739A1, “PEPTIDES FOR INCREASING DRUG DELIVERY TO CANCER” (Chapman University, priority 2022, published 2024).

Series [1] concerns human melanoma A375 tumor xenografts and organs. Briefly: In vivo and ex vivo imaging of biodistribution in mice bearing A375 xenografts. Particulars: ex vivo imaging. Also on record: species or system athymic nude mice. The protocol: FIG. 4A and FIG. 4B-1 and FIG. 4B-2 show in vivo and ex vivo organ distribution images of VivoTag 680 XL-labeled D-aa KK-11 in athymic nude mice bearing human melanoma A375 tumors. Saline or VivoTag-KK-11 in a dose of 8 μg per mouse was injected into the mice via the tail vein (n=2 for each time point).
The top panels represent the scanned images of the tumor section area in coronal views. The bottom-row pictures display the fluorescence image in trans-axial views: arrows point to the spine, and circles mark the xenograft tumors.
Organs including tumor xenografts (T), liver (L), spleen (S), heart and lungs (H+L), kidneys (K), and brain (B) were excised and imaged using the IVIS Spectrum imaging system. Representative fluorescence images of different organs show peptide distribution at different time points as indicated.
Ex vivo and in vivo imaging. The study was carried out in compliance with Animal Research: Reporting of In Vivo Experiments (ARRIVE) guidelines. All the animal procedures were approved by the Institutional Animal Care and Use Committee (IACUC) at Chapman University and conducted in compliance with the policies of Chapman University, and federal, state, and local animal welfare authorities. Male and female athymic nude mice (4-6 weeks old) were kept (5 in each cage) in a pathogen-free environment. Approximately 10^6 human melanoma A375 cells (0.1 mL in normal saline), mixed with 0.1 mL cold Matrigel (#354248; Corning, Corning, NY), were injected subcutaneously in the flank. The tumor size was measured with a caliper, and body weight was recorded once a week. When the tumor size reached approximately 800-1000 mm^3 as calculated using the following formula: [Length×(Width^2)]/2 (in mm), mice were processed for in vivo or ex vivo imaging.
For in vivo imaging, normal saline or VivoTag-KK-11 at a dose of 8 μg per mouse was injected into the mice via the tail vein (n=2 for each time point). The animals were then scanned at different time intervals (0.5, 2, 6, and 24 h) using an IVIS Spectrum in vivo imaging system (PerkinElmer, Waltham, MA). The mice were imaged for 0.5 sec, 10 bin, level B at an emission wavelength of 688±5 nm. Imaging was limited to no more than once a day and was conducted under continuously maintained isoflurane. Mice were maintained on alfalfa-free diets to minimize the background fluorescence. All the study animals survived through the in vivo imaging procedure.
For ex vivo imaging at defined time intervals (5, 15, 30 min, followed by 1, 1.5, 2, 3, 4, 6, 24, and 48 h) following fluorescence conjugate injection, animals were euthanized via carbon dioxide inhalation (n=2 for each time point); tumor, liver, spleen, heart, lungs, brain, and kidneys were collected and briefly rinsed with saline. The organs were then imaged for 0.5 sec, 10 bin, level B at an emission wavelength of 688±5 nm using an IVIS Spectrum imaging system.

Series [2] can be described thus: Serum stability (RP-HPLC AUC of intact peptide). It counts as in vitro ADME. The procedure:
Serum stability. Human serum (250 μL) was thawed to room temperature and was added to DMEM media (650 μL). The mixture was kept in a 37° C. incubator to mimic human body temperature for 15 min. The peptide (100 μL, 1 mM) was dissolved (dispersed) in sterile water. The peptide solution was added to the pre-warmed human serum and DMEM mixture. The mixture was incubated at 37° C. At different time points (0, 0.5, 1, 5, and 24 h) aliquots (100 μL) were removed and added to methanol (200 μL). Each time point sample was kept at 4° C. for 5 min and then was centrifuged at 500×g for 15 min to separate serum proteins. The supernatant was injected into the RP-HPLC, and the major peaks were collected. The peak's mass was determined using MALDI-TOF mass analysis. The serum stabilities of the D-aa KK-11 were determined by comparing the HPLC peaks (AUC) for the intact peptides at different time points.
For in vivo studies, peptide KK-11 was labeled with a fluorescent Vivotag 680 XL in the N-terminus (Scheme 1). In addition, two amino acids in the sequence (norleucine and arginine) were substituted with D-amino acids to increase proteolytic stability. These amino acids were identified as proteolytically labile sites. The D-aa KK-11 peptide was assembled on acid-labile Rink amide resin and was characterized. The proteolytic stability of the D-aa KK-11 peptide was evaluated by incubating with human serum. The presence of the intact peptide after incubation with human serum for different time periods was detected using RP-HPLC and confirmed by MALDI-TOF mass analysis. […] However, peptide KK-11 with all L-amino acids reduced to an undetectable level within 30 min (data not shown). For conjugating VivoTag 680 XL dye, the peptide was modified by incorporating a β-alanine moiety generating the precursor Aβ-KK-11. The structure and mass of Aβ-KK-11 were confirmed by NMR (^1H and ^13C) and MALDI-TOF [M+H]^+ 1588.5 Da. Next, the β-alanine terminal amino group was allowed to react with the succinimidyl ester group of the reactive fluorophore (VivoTag 680 XL) under basic conditions in polar aprotic solvent, generating the fluorescently labeled peptide with extrusion of N-hydroxysuccinimide (NHS) (Scheme 1). The mass of the fluorescence-labeled VivoTag-Aβ-KK-11 was confirmed by MALDI-TOF, showing a peak at 2823.4 Da, corresponding to [M+H]^+.

For series [3], the system named is A375 melanoma cells. Briefly: In vitro cytotoxicity detected by MTT colorimetric assay. Type of series: cell-based, human. The protocol: (§1) The bar represents the average fluorescence density of three cell lines (A375, Sk-mel-28, and wm3211 cells) detected by fluorescence-activated cell sorting (FACS) analysis. The cells were incubated with FITC-labeled peptide for […] at 37° C. (0.5 μM, grey bar; 1 μM, dark bar). The control is cells incubated with FITC alone. […] Cells were either treated with DOX or co-treated with DOX and KK-11 (1 μM) for 72 h (KK-11+DOX) or pretreated with KK-11 for 4 h, then washed away following a DOX 72 h treatment (KK-11 to DOX). Control is DMSO or KK-11 alone. Cell viability was detected by a MTT colorimetric assay. Statistical analysis was performed with a student's t-test, and error bars denote mean±SD; **, p<0.01; ***, p<0.001 compared to DOX alone. […] Cells were treated with MAC-3-190 at various concentrations with or without 1 μM KK-11 for 72 h. Cell viability was detected by MTT assay. The assays were repeated independently at least three times.
In vitro cytotoxicity detected by MTT colorimetric assay. Cells were seeded in a 96-well plate and allowed to adhere overnight prior to adding the compound. After 72 h of treatment in serum-free media, an MTT solution was added to each well to give a final concentration of 0.5 mg/mL and was incubated for 3 h. Formed crystals were solubilized, and the absorbance was measured at 595 nm.
On the technique in general: Formazan colour is commonly taken as a measure of viable cells.

Series [4] relates to human melanoma cells (wm3211, Sk-mel-28, A375). Description: In vitro cellular uptake of FITC-labeled peptides by flow cytometry (FACS). Type of series: cell-based. Particulars: 0.5 and 1 μM. The protocol: as §1
In vitro cellular uptake analysis. The peptide (FITC-labeled) concentration was determined using a Shimadzu BioSpec-nano Micro-volume UV-Vis spectrophotometer (Shimadzu). Human melanoma cells (wm3211, Sk-mel-28, and A375) were incubated with FITC or FITC-labeled peptides at final concentrations of 0.5 μM and 1 μM for 2 h. […] The mean fluorescence density of 10,000 cells was analyzed and compared to that of control cells.
A general note: A flow cytometer gives signals particle by particle.

In series [5] the test system is human melanoma cell lines (A375, Sk-mel-28, wm115) compared to normal human HEK-293 cells. Briefly: Peptide array-whole cell binding assay (CyQUANT fluorescence). It counts as cell-based. The following applies: average fluorescent intensity of melanoma cells (A375, Sk-mel-28, wm115) bound to peptide divided by that of HEK-293 cells bound to same peptide. The text has this:
Peptide array synthesis. Fifty-three peptide sequences were synthesized in duplicate on derivatized cellulose membrane (Intavis, Germany) using a ResPep SL Autospot robot. The detailed method was explained previously (Ahmed et al. Anal Chem. 82:7533-7541, 2010; Hossein-Nejad-Ariani et al. Sci Rep. 9:2723, 2019). Briefly, the sequences of peptides were entered in the robot software, and 384 spot synthesis mode was selected for this library. First, the membrane was dipped in DMF for an hour followed by transfer and support to the holder of the robot on filter paper. Then the membrane was washed with ethanol and subjected to a vacuum to remove any bubbles under the membrane. The Fmoc strategy was used for peptide synthesis. DIC and Oxyma pure were used as coupling reagent and racemization suppressor, respectively. After each coupling, capping of unreacted amino acids was done using acetic anhydride (3%), followed by 20% piperidine for Fmoc deprotection. The C-terminal end of all peptides were bound to the membrane. Following the synthesis, the membrane was dipped in deprotection solution containing 15 mL TFA, 15 mL DCM, 900 μL TIPS, and 600 μL water, and kept for 3 h at room temperature. Next, membranes were thoroughly washed with DCM, DMF, and ethanol. Finally, they were air dried and kept in a sealed bag at −20° C. until use.
Peptide array cell binding assay. The sequential steps of the assay are as described in a previous publication (Ahmed et al. 2010; Soudy et al. J Med Chem. 54:7523-7534, 2011). The membrane was dipped in ethanol for 30 sec to remove any precipitation of hydrophobic peptides. Then the membrane was dipped in sterile PBS at pH 7.4 for 30 min. The cells (75×10^3 cells/mL) were seeded directly on the membrane in a sterile plate and incubated at 37° C. for 4 h. After washing off the unbound cells with sterile PBS, pH 7.4, the membrane was frozen at −80° C. for 2 h. Subsequently, it was defrosted at room temperature and incubated in CyQUANT solution at 37° C. for 30 min following the manufacturer's protocol. The membrane was then washed with sterile PBS and air-dried.
Membranes were scanned using the ChemiDoc™ XRS+system (Bio-Rad) to analyze the fluorescence intensity of each spot. The setting was adjusted based on the excitation and emission wavelength of the CyQUANT dye at 465 nm and 535 nm, respectively. The fluorescence intensity (FI) was normalized by the FI of non-cancerous HEK-293 cells.
A library of 53 peptides was synthesized in an array format on a cellulose membrane using SPOT synthesis (Table 1). The peptide library was designed starting with five lead cancer cell targeting peptides, Arg peptide (1, Table 1), p160 analogue (11), RGD (16), GE11 (20), and LSD (37). Conservative substitutions, deletion from the N- or C-terminus, alanine scan, and scrambling of amino acids were used to design the analogues for the library. The peptides were screened for specific binding to three human melanoma cell lines. The cells were incubated with the cellulose membranes with conjugated peptides followed by incubation with CyQUANT fluorescence dye. A brief schematic for the peptide array-whole cell binding assay for screening peptides with high affinity for melanoma cells is shown in FIG. 2A. The relative cell adhesion capacities of the peptides to A375 (FIG. 2B), Sk-mel-28 (FIG. 2C), and wm115 were estimated based on the fluorescence of the bound melanoma cells compared to normal human HEK-293 cells.

Series [6] concerns human primary glioma U87 cells. Description: Binding to glioma cells (data not shown). It counts as cell-based.
Series [7] has as its system A375 human melanoma xenograft. Description: In vivo xenograft melanoma mouse model.
Protocol: FIG. 5A; the tumors were measured three times a week using digital Vernier calipers. Tumor volume (mm^3) was calculated as [Length×(Width^2)/2. […] FIG. 5C; the body weights of the mice were measured after 21 days of treatment. Statistical analysis was performed with student's t-test and error bars denote mean±SD: *, p<0.05 compared to control group.
In vivo xenograft melanoma mouse model. Nude mice (Nu/Nu) were purchased from Charles River (Wilmington, MA) and were housed and maintained in the Chapman University vivarium under pathogen-free conditions. A375 cells were suspended in cold Matrigel and injected subcutaneously into the flank of each mouse (1×10^6 cells per mouse) to establish tumors. […] For the co-treatment, the solution of D-aa KK-11 and MAC-3-190 (1:11 molar ratio) was mixed gently and incubated at room temperature for 30 min before injection via tail vein. The growth of the tumors was monitored three times a week and measured using digital Vernier calipers. The tumor volume (mm^3) was calculated as [Length×(Width^2)]/2 (in mm). The mice were sacrificed after 21 days per IACUC policy when the control group's average tumor size reached 2,000 mm^3. Tumor xenografts were removed and weighed.

For `CCCC[C@@H](NC(=O)[C@H](Cc1c[nH]c2ccccc12)NC(=O)[C@@H]1CCCN1C(=O)[C@@H](N)C(C)C)C(=O)N[C@@H](CCC(=O)O)C(=O)N1CCC[C@H]1C(=O)N[C@@H](C)C(=O)N[C@@H](Cc1ccc(O)cc1)C(=O)N[C@@H](CCC(N)=O)C(=O)N[C@H](CCCNC(=N)N)C(=O)N[C@@H](Cc1ccccc1)C(=O)N[C@@H](CC(C)C)C(N)=O` [D-aa KK-11, VPWxEPAYQrFL] (HELM PEPTIDE1{V.P.W.[CCCC[C@@H](N[*:1])C(=O)[*:2]].E.P.A.Y.Q.[dR].F.L.[am]}$$$$V2.0; N-terminus assumed), in series [1] (8 μg per mouse, tail vein), the “time at which fluorescence is evident in tumor xenografts” value was no more than 5 min. The “time fluorescence remained detectable in tumor xenografts” value in series [1] (single tail vein injection) is given as “up to 24 h”. In series [2] (human serum (25% v/v in DMEM), 37° C., 5 h, read-out: area under the curve of the peptide peak, of control (t=0 h)), the remaining at 5 h, 100 µM was determined as 97.4%. Further, in series [2] (human serum (25% v/v in DMEM), 37° C., 24 h, read-out: area under the curve of the peptide peak / peptide remaining, of control (t=0 h)), the remaining at 24 h, 100 µM came to 45.3%. In series [2] (human serum, 37° C., 24 h), the “area under the curve of the peptide peak / peptide remaining, of control (t=0 h)” value is recorded as 45.3%.

As for `COc1cccc2c1C(=O)c1c(O)c3c(c(O)c1C2=O)C[C@@](O)(C(=O)CO)C[C@@H]3O[C@H]1C[C@H](N)[C@H](O)[C@H](C)O1` [DOX, doxorubicin], the viability at 0.5 µM in series [3] (Homo sapiens, A-375, 72 h, DOX 0.5 μM alone, 72 h, A375, read-out: cell viability, of control) came out at 62%. Besides, the viability at 1 µM was 40% in series [3] (Homo sapiens, A-375, 72 h, DOX 0.5 μM co-treatment with KK-11 (1 μM), 72 h, A375, read-out: cell viability, of control); 24% in series [3] (Homo sapiens, A-375, 72 h, DOX 1 μM alone, 72 h, A375, read-out: cell viability (cells survived)); 14% in series [3] (Homo sapiens, A-375, 72 h, DOX 1 μM in combination with KK-11 (1 μM), 72 h, A375, read-out: cell viability, of control). Moreover, in series [3] (KK-11 and DOX sequentially (KK-11 pretreatment 4 h, washed, then DOX 72 h)), the “change of DOX cytotoxicity” value is “failed to produce any changes on DOX cytotoxicity”.

Consider “GRRPRPRPRP [Peptide 1, FITC-labeled (β-alanine spacer) in the uptake study]”, for which the “uptake by melanoma cells (in words)” value in series [4] is “significantly increased uptake”. Further, the “Fluorescence Ratio” value in series [5] was 1.82.

“VPWXEPAYQRFL [Peptide 11, X stands for norleucine]”: the “binding to U87 cells” value in series [6] was “can also bind”. Further, in series [7], the “toxicity of peptide alone in vivo” value is reported as “No cytotoxicity”. Further, the “Fluorescence Ratio” value in series [5] is on record as 1.80. Also, in series [3] (in vitro), the “cytotoxicity of peptide alone” value was “No cytotoxicity”. For the same molecule, the “time until reduced to an undetectable level” value in series [2] (human serum, data not shown) is no more than 30 min.
